Conditions: Liquid, Capillary tube (Ostwald / Ubbelohde) method

CCCCCCCCCCCCCCCC [hexadecane]
Conditions	viscosity [mPa·s]
322.7 K, 1940 kPa	1.885
323.7 K, 970 kPa	1.857
323.7 K, 3000 kPa	1.904
323.8 K, 1980 kPa	1.878
323.8 K, 3910 kPa	1.925
372.7 K, 990 kPa	0.909
372.7 K, 1960 kPa	0.922
372.8 K, 2970 kPa	0.929
372.8 K, 3950 kPa	0.947
373.9 K, 980 kPa	0.896
373.9 K, 2000 kPa	0.909
373.9 K, 2980 kPa	0.915
373.9 K, 3900 kPa	0.936
422.9 K, 1990 kPa	0.554
422.9 K, 2970 kPa	0.557
422.9 K, 3840 kPa	0.568
471.9 K, 1000 kPa	0.358
472 K, 2010 kPa	0.363
472.1 K, 2910 kPa	0.371
472.1 K, 3870 kPa	0.374
473.7 K, 3990 kPa	0.375
521.9 K, 970 kPa	0.245
521.9 K, 1960 kPa	0.254
521.9 K, 2950 kPa	0.26
522 K, 3830 kPa	0.267
572.1 K, 2930 kPa	0.192
572.2 K, 2000 kPa	0.187
572.2 K, 3850 kPa	0.196
621.9 K, 2010 kPa	0.131
622 K, 2890 kPa	0.137
622.1 K, 3820 kPa	0.142
623.2 K, 3990 kPa	0.143
672.6 K, 3990 kPa	0.104
673.2 K, 2000 kPa	0.091
673.6 K, 3000 kPa	0.097

Reference: the NIST ThermoML archive (doi:10.1021/acs.jced.8b00930)
